Data set [1] deals with HCT116/Luc cells. Nature of the data set: Metastatic tumor model, HCT116/Luc cells transplanted into spleen with liver metastasis. The class given is in vivo, mouse. As for the experimental part:
HCT116/Luc cells (2.5×10^5 cells) were suspended in 100 μl of phosphate buffer solution (PBS), and were injected into the spleens of 8-week-old male nude mice (BALB/cAJcl-nu/nu, CLEA Japan, Inc.) under anesthesia. After 19 days had elapsed since the transplantation, ASO (50 μg/body; about 2.5 mg/kg) was subcutaneously administered twice a week. Mice were euthanized 47 days after the HCT116/Luc cell transplantation and were subjected to histological analysis.
Tumor growth analysis was performed by recording bioluminescence images at a frequency of once a week, in the following manner: VivoGlo luciferin (30 mg/ml) was administered intraperitoneally, and 10 minutes after the administration of VivoGlo luciferin, recording was carried out using an IVIS imaging system (Xenogen Corp., Alameda, CA, USA).
In a metastatic tumor model in which HCT116 cells were transplanted into the spleen and the tumor was caused to metastasize to the liver, influences of the subcutaneous administration of ARL4C ASO (ASO-1316 and ASO-3223) on the liver tumor was examined.
In an experiment in the metastatic tumor model, HCT116/Luc cells were injected into the spleens (day 0), luciferase signals were detected in the livers 19 days after the injection; on and after this day, control ASO, ASO-1316, and ASO-3223 were subcutaneously administered at a frequency of twice a week. When 19, 35 and 47 days had elapsed, the fluorescence of luciferase emitted from the liver tumors was observed, and when 47 days had elapsed, fluorescence intensities of luciferase emitted from the liver tumors were quantified with software of IVIS/Kodak; the results are shown in (a) of FIG. 10. […] In addition, when 47 days had elapsed since the transplantation of HCT116/Luc cells, the tumors formed in the livers were observed, and the tumors formed in the livers were immunostained with an anti-ARL4C antibody; the results are shown in (b) of FIG. 10. The tumors formed in the livers were immunostained with an anti-Ki-67 antibody when 47 days had elapsed since the transplantation of HCT116/Luc cells; the results are shown in (c) of FIG. 10.

The test system of data set [2] is HLE cells. Nature of the data set: Cell migration assay in HLE/GFP and HLE/ARL4C-GFP cells. The class given is cell-based. As to conditions: HLE/GFP or HLE/ARL4C-GFP cells transfected at 25 nM. From the text:
HLE cells allowing for the stable expression of GFP (HLE/GFP cells), HLE cells allowing for the stable expression of ARL4c-GFP with GFP fused to the C-terminal side (HLE/ARL4C-GFP cells, i.e., cells in which ARL4C-GFP is transduced and stably expressed), HCT116 cells allowing for the stable expression of luciferase (HCT116/Luc cells), A549 cells allowing for the stable expression of luciferase (A549/Luc cells), and S2-CP8 cells allowing for the stable expression of luciferase (S2-CP8/Luc cells) were produced using lentivirus according to the method reported by Matsumoto S et al. (EMBO J 2014; 33: 702-18) and Fujii S et al. (Oncogene 2015; 34: 4834-44). In addition, ARL4C-GFP is ARL4C with GFP fused thereto.
HLE cells, HCT116 cells, and A549 cells were transfected with 25 to 50 nM ASO and 10 to 20 nM siRNA using Lipofectamine 3000 (Invitrogen, Carlsbad, CA, USA) or RNAiMAX (Invitrogen). Transfected cells were used in the experiments 36 to 48 hours after the end of the transfection.
Cell migration assays and quantitative real-time PCR analyses were performed according to the methods reported by Fujii S et al. (Oncogene 2015; 34: 4834-44). […]

The test system of data set [3] is HLE cells. The experiment in a line: Primary liver tumor model, HLE cells transplanted into mouse liver. Format: in vivo. The conditions noted are these: for HLE tumorigenesis in the liver: 50 μg/body subcutaneously twice a week from day 0, 29 days after transplantation. As for the experimental part:
Pellets of HLE cells (1×10^7 cells) were suspended in 100 μl of Matrigel matrix high concentration (BD Biosciences, San Jose, CA, USA) and were injected into the livers of 8-week-old male nude mice (BALB/cAJcl-nu/nu, CLEA Japan, Inc.) under anesthesia (day 0). From day 0, ASO (50 μg/body; about 2.5 mg/kg) was subcutaneously administered twice a week. Mice were euthanized 29 days after the HLE cell transplantation, and tumors were recovered and subjected to histological analysis.
In a primary liver tumor model in which HLE cells were directly transplanted into the liver, influences of the subcutaneous administration of ARL4C ASO (ASO-1316 and ASO-3223) on liver tumors was examined.
In experiments in the primary liver tumor model, Matrigel containing HEL cells at a high concentration was injected into the liver of a mouse (day 0), and control ASO, ASO-1316, and ASO-3223 were subcutaneously administered on and after day 0, at a frequency of twice a week. The tumor formed in the liver was observed when 29 days had elapsed since the transplantation; the result is shown in (a) of FIG. 8. In addition, when 29 days had elapsed since the transplantation, the tumor formed in the liver was immunostained with an anti-ARL4C antibody and an anti-PIK3CD antibody, the result of which is shown in (b) of FIG. 8, and the tumor was immunostained with an anti-Ki-67 antibody, the result of which is shown in (c) of FIG. 8.

Where [4] appears, read: subcutaneous twice a week, day 29.

[AmNA] = 2',4'-bridged nucleic acid with N-methyl amide bridge (AmNA); d = 2'-deoxy (DNA)

Regarding “ASO-1316: 15-mer AmNA/phosphorothioate ASO targeting ARL4C, base sequence SEQ ID NO: 1 gcatacctcaggtaa; Table 1 SEQ ID NO 13 (antisense GCATACCTCAGGTAA; AmNA and phosphorothioate modified, pattern not given here)”, the “growth of liver tumors (luciferase)” value in data set [1] (50 μg/body subcutaneously twice a week from day 19, until day 47) is recorded as “the growth of the tumors until 47 days after the injection could be suppressed”. In data set [1] (day 47), the “ARL4C expression level in liver tumor (immunostaining)” value was “decreased ARL4C expression levels” and the “number of Ki-67 positive cells in liver tumor” value is listed as “decreased numbers of Ki-67 positive cells”. The cell migration entry in data set [2] was “suppress the migration of HLE cells”. The “HLE tumorigenesis in the liver” value in data set [3] is “able to suppress the HLE tumorigenesis”. The “tumor size as compared with the control ASO” value in data set [3] (50 μg/body subcutaneously twice a week, day 29) was “reduce the tumor size by half”. Moreover, in data set [3] (setting [4]), the “expression of ARL4C in tumors formed in the liver (immunostaining)” value was “suppress the expression of ARL4C and PIK3CD”; the “expression of PIK3CD in tumors formed in the liver (immunostaining)” value is “suppress the expression of ARL4C and PIK3CD”; the “histological damage or cell death in the non-tumor area of the liver” value is recorded as “did not induce histological damage or cell death”; the “number of Ki-67-positive cells in liver tumors” value is on record as “reduce the number of Ki-67-positive cells”.

Consider “ASO-3223: 19-mer ARL4C ASO of Table 1, SEQ ID NO 55 (antisense NNNGGTTACAGTATTTNNC; sugars from the 5' end [AmNA]3 d13 [AmNA]2 d1, backbone, methylation of C and the base at N not given here; further chemistry not fully specified)”, for which the “antitumor effect in the metastatic tumor model” value in data set [1] (subcutaneous twice a week from day 19) was “did not exert an antitumor effect”. Besides, the cell migration result in data set [2] was “suppress the migration of HLE cells”. In addition, the “HLE tumorigenesis in the liver” value in data set [3] is recorded as “almost no influence”. Also, the “antitumor effect in vivo” value in data set [3] (primary liver tumor model) is on record as “no antitumor effect was observed”. Also, in data set [3] (setting [4]), the “expression of ARL4C in tumors formed in the liver (immunostaining)” value was “almost no influence”, the “expression of PIK3CD in tumors formed in the liver (immunostaining)” value was “almost no influence” and the “number of Ki-67-positive cells in liver tumors” value is “almost no influence”.

(Values after patent US12071624B2, “Antisense oligonucleotide targeting ARL4C molecule, and nucleic acid drug using antisense oligonucleotide” (OSAKA UNIVERSITY, priority 2018, dated 2024).)
